Legend:
4-hydroxynonenal (4-HNE) = assay: Assessment of oxidative stress at the retinal level (4-HNE immunofluorescence) in the NalO3-induced mouse model of macular degeneration; type: in vivo, C57BL/6J male mice; details: for protection of the retina from the NalO3-induced increase of 4-HNE (in words): NalO3 mouse model, eye drops; for reduction of the retinal levels of 4-HNE (immunofluorescence): eye drops 5 μl of 10 mM solution, 60 min before NalO3 (20 mg/kg, retro-orbital vein) then 3 times a day, retina collected day 4, mean±SEM, P<0.01 vs. V2/NalO3
Experimental: (§1) To create a valid model of macular degeneration, the systemic administration (via the retro-orbital vein) of NalO3 was carried out in C57BL/6J male mice aged 5-8 weeks and weighing 22-25 g supplied by the Charles River company (Milan, Italy). In order to carry out the experiments described below, a total of 36 mice were used. The animals were kept in a temperature and humidity-controlled environment (12-hour dark/light cycle, free access to food and water). The experiments were performed in a temperature-controlled room (20 to 22° C.) between 8:00 and 20:00. At the end of the experiment, the animals were euthanized by inhalation of a mixture of 50% O2/50% CO2 for 1 minute. The NalO3, DMSO, Tween 80 and NaCl 0.9% reagents used in the study were purchased from Merck Life Science SRL (Milan, Italy).
(§2) The mice were administered locally, through eye drops, the compounds indicated above or their vehicle consisting of 4% DMSO, 4% Tween 80 in 0.9% NaCl.
(§3) In particular, a group of 6 mice (used as a control) was administered by instillation, 60 minutes before the injection into the retro-orbital vein (1 ml/kg) of the vehicle (V1) (NaCl, 0.9%) of NalO3 and subsequently 3 times a day, eye drops (5 μl) containing the vehicle (V2) (4% DMSO, 4% Tween 80 in NaCl 0.9%) of the drugs.
(§4) Another 30 mice received, in groups of 6 mice each, 60 minutes before the injection into the retro-orbital vein (1 ml/kg) of NalO3 (1%, 20 mg/kg) and subsequently 3 times a day, eye drops (5 μl) of a 10 mM solution of the above-mentioned compounds FN-005, FN-006, FN-007, FN-008 or their vehicle (V2) (4% DMSO, 4% Tween 80 in 0.9% NaCl) by instillation.
(§5) For each group of mice, the first administration (day 1) of the compound of formula (IV), of the compound of formula (I), of the compound of formula (II) and of the compound of formula (III) or of the vehicle (V2) was performed 60 minutes before the injection of NalO3 or its vehicle (V1) and the second and third administration were performed 6 and 12 hours after the injection of vehicle (V1) or NalO3, respectively. On the two days (day 2 and day 3) following the injection of vehicle (V1) or NalO3, the compounds of formula (IV), (I), (II), and (III) or vehicle (V2) were administered to the various groups of mice at 8:00, 14:00 and 20:00.
(§6) At 09:00 on day 4 after the treatment with vehicle (V1) or NalO3 the mice given the compounds indicated above as FN-005, FN-006, FN-007, FN-008 or their vehicle (V2) were sacrificed (as previously reported) and the eyeballs were enucleated and processed for subsequent analysis of the damage.
The level of oxidative stress was also assessed throughout the thickness of the retina by measuring the immunofluorescence intensity for the reactive carbonyl species, 4-hydroxynonenal (4-HNE), a final indicator of oxidative stress.
Levels of 4-HNE were quantified using a primary antibody (#ab48506, monoclonal mouse [HNEJ-2], 1:40, Abcam, Cambridge, UK) to which a second fluorophore-labelled antibody (Alexa Fluor 594, #A A32742, Thermo Fisher Scientific) binds in the 6 groups of mice treated as described above.
Cell nuclei were visualized using the DAPI organic dye (#ab228549, Abcam, Cambridge, UK).
The data relating to the fluorescence intensity value are presented for each treatment as mean±SEM. *p<0.05 vs V1/V2; § p<0.05 vs NalO3 in FIG. 2B. Statistical analysis using one-way analysis of variance (ANOVA) test and Bonferroni test.

[1] = test system: RPE layer (retinal pigmented epithelium); assay: Immunofluorescence (RPE65) for assessing damage of the retinal pigment epithelium in the NalO3-induced mouse model of macular degeneration; type: in vivo, C57BL/6J male mice; details: for protection of the retina from NalO3-induced damage of the cells of the RPE layer (in words): NalO3 mouse model, eye drops; for reduction of the NalO3-induced damage on the RPE layer compared to V2 (RPE65 staining intensity): eye drops 5 μl of 10 mM solution, 60 min before NalO3 (20 mg/kg, retro-orbital vein) then 3 times a day, retina collected day 4, mean±SEM, P<0.01 vs. V2/NalO3
Experimental: as §1, §2, §3, §4, §5, §6
Direct immunofluorescence was used to assess damage to the RPE (retinal pigmented epithelium), which corresponds to the layer of pigmented cells immediately adjacent to the neurosensory retina which nourishes the visual cells of the retina, and is firmly attached to the underlying choroid and the overlying visual retinal cells.
The staining intensity of the RPE layer was quantified using a primary antibody (RPE65, #ab13826, mouse monoclonal, 1:100, Abcam, Cambridge, UK) to which a second fluorophore-labelled antibody (Alexa Fluor 488, #A28175, Thermo Fisher Scientific) binds in the 6 groups of mice treated with V2/V1, V2/NalO3, with the compound of formula (IV) and NalO3 (FN-005/NalO3), with the compound of formula (I) of polycyclic heteroaromatic derivatives and NalO3 (FN-006/NalO3), with the compound of formula (II) and NalO3 (FN-007/NalO3) and with the compound of formula (III) and NalO3 (FN-008/NalO3). Cell nuclei were visualized using the DAPI organic dye (#ab228549, Abcam, Cambridge, UK).
The data relating to the fluorescence intensity value are presented for each treatment as mean±SEM. *p<0.05 vs V1/V2; § p<0.05 vs NalO3 in FIG. 1B. Statistical analysis using one-way analysis of variance (ANOVA) test and Bonferroni test.

SMILES	protection of the retina from the NalO3-induced increase of 4-HNE (in words) (4-hydroxynonenal (4-HNE))	reduction of the retinal levels of 4-HNE (immunofluorescence) (4-hydroxynonenal (4-HNE)) [%]	protection of the retina from NalO3-induced damage of the cells of the RPE layer (in words) [1]	reduction of the NalO3-induced damage on the RPE layer compared to V2 (RPE65 staining intensity) [1] [%]
COCCCOc1cccc([C@H]2NC(=S)NC3=C2C(=O)c2ccccc23)c1 [compound of formula (II)]	protected the retina	50.32±6.30	particularly effective in protecting the retina	60.0±12.8
Cc1cc2[nH]ncc2cc1-c1ccccc1C(F)(F)F [compound of formula (III)]	protected the retina	62.10±7.55	particularly effective in protecting the retina	96.8±20.0
C[C@H]1[C@H](F)C[C@@H](C(=O)NCc2cc(-c3cnc(C(F)(F)F)nc3)ncc2C(F)(F)F)N1S(=O)(=O)c1ccc(F)cc1 [compound of formula (IV)]	protected the retina	64.16±17.51	particularly effective in protecting the retina	84.5±33

Reference: patent publication US20240285623A1, “TRPA1 CHANNEL ANTAGONIST COMPOUND FOR USE IN DEGENERATIVE RETINAL DISEASES” (FLONEXT S.R.L., priority 2021, published 2024)
